Assay results: the supplement of paper PMC4862054

test system: MFM-223; conditions: 72 h
In short: (§1)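 Breast cancer cell lines in 20 µl suspension were seeded onto 384-well plates that already held compound dissolved in 5 µl medium and were incubated for 72 h. Viability was measured by adding 2.5 µl CellTiter-Blue for 2 h at 37 °C and reading fluorescence at 560/590 nm. Each plate was normalised to vehicle and a positive kill control and checked by Z'-factor. EC50 was taken from a fitted percent-inhibition dose-response curve, censored at the highest concentration, and rows with a drug sensitivity score of zero were removed.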

Structure (SMILES) | EC50, CellTiter-Blue viability [nM]
COc1ccc(S(=O)(=O)Nc2cccnc2Nc2ccc(O)cc2)cc1 [ABT-751] | 2130
CNC(=O)c1ccccc1Sc1ccc2c(/C=C/c3ccccn3)n[nH]c2c1 [Axitinib] | 163
COc1cc(Nc2c(C#N)cnc3cc(OCCCN4CCN(C)CC4)c(OC)cc23)c(Cl)cc1Cl [Bosutinib] | 5250
Cn1cc(C2=C(c3cn(C4CCN(Cc5ccccn5)CC4)c4ccccc34)C(=O)NC2=O)c2ccccc21 [Enzastaurin] | 642
Nc1ccn([C@@H]2O[C@H](CO)[C@@H](O)C2(F)F)c(=O)n1 [Gemcitabine] | 673
CC(=O)[C@]1(O)Cc2c(O)c3c(c(O)c2[C@@H](O[C@H]2C[C@H](N)[C@H](O)[C@H](C)O2)C1)C(=O)c1ccccc1C3=O [Idarubicin] | 263
C/C(=C\c1csc(C)n1)[C@@H]1C[C@@H]2O[C@]2(C)CCC[C@H](C)[C@H](O)[C@@H](C)C(=O)C(C)(C)[C@@H](O)CC(=O)N1 [Ixabepilone] | 322
C=CCn1c(=O)c2cnc(Nc3ccc(N4CCN(C)CC4)cc3)nc2n1-c1cccc(C(C)(C)O)n1 [MK1775] | 182
CO[C@@H]1[C@H](N(C)C(=O)c2ccccc2)C[C@H]2O[C@]1(C)n1c3ccccc3c3c4c(c5c6ccccc6n2c5c31)C(=O)NC4 [Midostaurin] | 708
CO[C@@]12[C@H](COC(N)=O)C3=C(C(=O)C(C)=C(N)C3=O)N1C[C@@H]1N[C@@H]12 [Mitomycin C] | 3790
CCNC(=O)c1noc(-c2cc(C(C)C)c(O)cc2O)c1-c1ccc(CN2CCOCC2)cc1 [NVP-AUY922] | 5.15
CC1(C)CCC(c2ccc(Cl)cc2)=C(CN2CCN(c3ccc(C(=O)NS(=O)(=O)c4ccc(N[C@H](CCN5CCOCC5)CSc5ccccc5)c(S(=O)(=O)C(F)(F)F)c4)cc3)CC2)C1 [Navitoclax] | 101
O=C(CCCCCCC(=O)Nc1ccccc1)NO [Vorinostat] | 2050

test system: Hs578T; conditions: 72 h
In short: as §1

Structure (SMILES) | EC50, CellTiter-Blue viability [nM]
COc1ccc(S(=O)(=O)Nc2cccnc2Nc2ccc(O)cc2)cc1 [ABT-751] | 218
COc1cc(Nc2c(C#N)cnc3cc(OCCCN4CCN(C)CC4)c(OC)cc23)c(Cl)cc1Cl [Bosutinib] | 4520
Cn1cc(C2=C(c3cn(C4CCN(Cc5ccccn5)CC4)c4ccccc34)C(=O)NC2=O)c2ccccc21 [Enzastaurin] | 873
Nc1ccn([C@@H]2O[C@H](CO)[C@@H](O)C2(F)F)c(=O)n1 [Gemcitabine] | 9.36
CC(=O)[C@]1(O)Cc2c(O)c3c(c(O)c2[C@@H](O[C@H]2C[C@H](N)[C@H](O)[C@H](C)O2)C1)C(=O)c1ccccc1C3=O [Idarubicin] | 93.8
C/C(=C\c1csc(C)n1)[C@@H]1C[C@@H]2O[C@]2(C)CCC[C@H](C)[C@H](O)[C@@H](C)C(=O)C(C)(C)[C@@H](O)CC(=O)N1 [Ixabepilone] | 625
C=CCn1c(=O)c2cnc(Nc3ccc(N4CCN(C)CC4)cc3)nc2n1-c1cccc(C(C)(C)O)n1 [MK1775] | 349
CO[C@@H]1[C@H](N(C)C(=O)c2ccccc2)C[C@H]2O[C@]1(C)n1c3ccccc3c3c4c(c5c6ccccc6n2c5c31)C(=O)NC4 [Midostaurin] | 299
CO[C@@]12[C@H](COC(N)=O)C3=C(C(=O)C(C)=C(N)C3=O)N1C[C@@H]1N[C@@H]12 [Mitomycin C] | 3560
CCNC(=O)c1noc(-c2cc(C(C)C)c(O)cc2O)c1-c1ccc(CN2CCOCC2)cc1 [NVP-AUY922] | 3.74
CC[C@H](CO)Nc1nc(NCc2ccccc2)c2ncn(C(C)C)c2n1 [Roscovitine] | 7660
O=C(CCCCCCC(=O)Nc1ccccc1)NO [Vorinostat] | 3080

test system: SK-BR-3; conditions: 72 h
In short: as §1

Structure (SMILES) | EC50, CellTiter-Blue viability [nM]
COc1ccc(S(=O)(=O)Nc2cccnc2Nc2ccc(O)cc2)cc1 [ABT-751] | 156
COc1cc(Nc2c(C#N)cnc3cc(OCCCN4CCN(C)CC4)c(OC)cc23)c(Cl)cc1Cl [Bosutinib] | 2130
Cn1cc(C2=C(c3cn(C4CCN(Cc5ccccn5)CC4)c4ccccc34)C(=O)NC2=O)c2ccccc21 [Enzastaurin] | 667
Nc1ccn([C@@H]2O[C@H](CO)[C@@H](O)C2(F)F)c(=O)n1 [Gemcitabine] | 11.8
CC(=O)[C@]1(O)Cc2c(O)c3c(c(O)c2[C@@H](O[C@H]2C[C@H](N)[C@H](O)[C@H](C)O2)C1)C(=O)c1ccccc1C3=O [Idarubicin] | 24.5
C/C(=C\c1csc(C)n1)[C@@H]1C[C@@H]2O[C@]2(C)CCC[C@H](C)[C@H](O)[C@@H](C)C(=O)C(C)(C)[C@@H](O)CC(=O)N1 [Ixabepilone] | 274
C=CCn1c(=O)c2cnc(Nc3ccc(N4CCN(C)CC4)cc3)nc2n1-c1cccc(C(C)(C)O)n1 [MK1775] | 120
CO[C@@H]1[C@H](N(C)C(=O)c2ccccc2)C[C@H]2O[C@]1(C)n1c3ccccc3c3c4c(c5c6ccccc6n2c5c31)C(=O)NC4 [Midostaurin] | 1240

The next lines start with the values.

EC50, CellTiter-Blue viability [nM] | Structure (SMILES)
1490 | CO[C@@]12[C@H](COC(N)=O)C3=C(C(=O)C(C)=C(N)C3=O)N1C[C@@H]1N[C@@H]12 [Mitomycin C]
6.13 | CCNC(=O)c1noc(-c2cc(C(C)C)c(O)cc2O)c1-c1ccc(CN2CCOCC2)cc1 [NVP-AUY922]
617 | O=C(CCCCCCC(=O)Nc1ccccc1)NO [Vorinostat]

test system: HCC1599; conditions: 72 h
In short: as §1

Structure (SMILES) | EC50, CellTiter-Blue viability [nM]
COc1ccc(S(=O)(=O)Nc2cccnc2Nc2ccc(O)cc2)cc1 [ABT-751] | 1590
COc1cc(Nc2c(C#N)cnc3cc(OCCCN4CCN(C)CC4)c(OC)cc23)c(Cl)cc1Cl [Bosutinib] | 2100
Nc1ccn([C@@H]2O[C@H](CO)[C@@H](O)C2(F)F)c(=O)n1 [Gemcitabine] | 233
CC(=O)[C@]1(O)Cc2c(O)c3c(c(O)c2[C@@H](O[C@H]2C[C@H](N)[C@H](O)[C@H](C)O2)C1)C(=O)c1ccccc1C3=O [Idarubicin] | 945
C=CCn1c(=O)c2cnc(Nc3ccc(N4CCN(C)CC4)cc3)nc2n1-c1cccc(C(C)(C)O)n1 [MK1775] | 632
CO[C@@H]1[C@H](N(C)C(=O)c2ccccc2)C[C@H]2O[C@]1(C)n1c3ccccc3c3c4c(c5c6ccccc6n2c5c31)C(=O)NC4 [Midostaurin] | 617

Now from value to molecule:

EC50, CellTiter-Blue viability [nM] | Structure (SMILES)
1370 | CO[C@@]12[C@H](COC(N)=O)C3=C(C(=O)C(C)=C(N)C3=O)N1C[C@@H]1N[C@@H]12 [Mitomycin C]
45.2 | CCNC(=O)c1noc(-c2cc(C(C)C)c(O)cc2O)c1-c1ccc(CN2CCOCC2)cc1 [NVP-AUY922]
166 | CC1(C)CCC(c2ccc(Cl)cc2)=C(CN2CCN(c3ccc(C(=O)NS(=O)(=O)c4ccc(N[C@H](CCN5CCOCC5)CSc5ccccc5)c(S(=O)(=O)C(F)(F)F)c4)cc3)CC2)C1 [Navitoclax]
2290 | CC[C@H](CO)Nc1nc(NCc2ccccc2)c2ncn(C(C)C)c2n1 [Roscovitine]
